pIC50: −log10 of the molar value.
System: dimethylnitrosamine induced liver fibrosis
Assay: not given
Conditions: rat, during the 3 weeks treatment; cited from earlier work

For `c1ccc(-c2cc(-c3cn[nH]c3-c3ccccn3)ccn2)cc1` [GW6604], the side effects is listed as “no obvious side effects”.

Same assay, conditions: rat, given therapeutically; cited from earlier work

In the case of `c1ccc(-c2cc(-c3cn[nH]c3-c3ccccn3)ccn2)cc1` [GW6604], the “inhibited extracellular matrix deposition” value is listed as 60%.

For `c1ccc(-c2cc(-c3cn[nH]c3-c3ccccn3)ccn2)cc1` [GW6604], the prevented death rate is listed as 40%.

Biological target: T1, human ALK5 (ALK5 T204D kinase domain) (Homo sapiens, UniProt P36897, T204D)
T1 construct: The kinase domain of human ALK5 (amino acids 200-503) is fused to an N-terminal histidine tag; made in house; host or cells: insect cells (baculovirus)
T1 sequence (P36897 200-503 T204D): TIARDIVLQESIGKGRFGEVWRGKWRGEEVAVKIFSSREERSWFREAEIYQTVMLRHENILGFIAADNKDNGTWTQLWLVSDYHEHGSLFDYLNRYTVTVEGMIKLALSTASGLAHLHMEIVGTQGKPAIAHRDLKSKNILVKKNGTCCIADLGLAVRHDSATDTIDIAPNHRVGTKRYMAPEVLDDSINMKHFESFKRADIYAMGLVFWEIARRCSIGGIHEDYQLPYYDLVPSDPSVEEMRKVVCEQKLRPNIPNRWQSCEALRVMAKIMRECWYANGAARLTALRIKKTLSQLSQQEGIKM
Assay: ALK5 kinase activity, radiolabelled phosphate [33P] incorporation into casein
Format: biochemical
Conditions: casein substrate, 1 μM unlabelled ATP
Experimental: The kinase activity of ALK5 is assessed by measuring radiolabelled phosphate [33P] incorporation in to the generic substrate, casein. The kinase domain of human ALK5 (amino acids 200-503) is fused to an N-terminal histidine tag. The kinase activity of ALK5 is rendered constitutive via point mutation at amino acid 204 (threonine to aspartate modification, ALK5 T204D) and the kinase construct is engineered to be expressed from a baculovirus expression construct in insect cells. The purified, recombinantly-expressed histidine-tagged ALK5 T204D protein is dissolved at 5.4 mg/ml in 50 mM Tris-HCl pH 8.0, 150 mM NaCl, 5 mM DTT. ALK5 T204D is dissolved to 2.5 μg/ml in assay buffer (Assay buffer: 20 mM Tris-HCl pH 7.4, 10 mM MgCl2, 2 mM MnCl2) on the day of use.
Test compounds and reference compounds are dissolved in assay buffer without DTT containing 5% (v/v) DMSO. Stock solutions of test and reference compounds are diluted in assay buffer with DTT (1.25 mM) containing 4.5% (v/v) DMSO. 10 μl of test or reference compound are added to the corresponding wells of 96 well U-bottomed plate. Total enzyme activity is determined by measuring ALK5 T204D activity in the absence of ALK5 kinase inhibitor reference compounds. Non-specific binding (NSB) is determined by measuring the activity of ALK5 T204D in the presence of ALK5 kinase inhibitor reference compounds. 10 μl of dephosphorylated casein stock solution (dephosphorylated casein is dissolved in ddH2O at 20 mg/ml) is added per well (200 μg/well final assay concentration). 20 μl of ALK5 T204D (2.5 μg/ml solution) is added per well (50 ng/well final assay concentration). The plates are left to incubate at room temperature for 10 minutes.
10 μl of ATP mix is added to the well to initiate the reaction (0.66 nM [^33P]ATP/1 μM unlabelled ATP/well final assay concentration). The ATP mix is prepared as follows, unlabelled ATP (3 mM) is dissolved in ddH2O and pH adjusted to 7.4. The stock concentration of [^33P]ATP is 10 μCi/μl. The corresponding volume of [^33P]ATP is added to unlabelled ATP solution such that the final assay concentration per well is 0.1 μCi. Following addition of the ATP mix, the plates are incubated at room temperature for 50 minutes. The kinase reaction is terminated by the addition of 50 μL Stop Buffer (20 mM Tris-HCl pH 7.4, 10 mM EDTA).
75 μl/well from the reaction plate is transferred to a Multiscreen-IP plate (MultiScreen-IP plates are prepared by added 50 μL of 70% (v/v) ethanol per well and incubated for 5 minutes at room temperature. The ethanol is removed by aspiration via a MultiScreen HTS Vacuum Manifold unit (Millipore, Cat no: MSVMHT500). The plates are washed twice by adding 200 μl/well ddH2O). The MultiScreen-IP plate is incubated at room temperature for 30 minutes to allowing binding of casein to the plate. The MultiScreen-IP plates are washed three times by adding 200 μl/well 100 mM phosphoric acid solution and the gasket is carefully removed from the back of the MultiScreen-IP plate and the plate dried in the oven for 30 minutes. The MultiScreen-IP plate is backsealed, 50 μL of Microscint™ 20 is added, then the plates are topsealed and radiolabelled casein detected and quantified on a TopCount™ plate-reader using the ^33P scintillation protocol.

Going from `CNC(=O)c1cccc(-c2cnn3c(-c4ccnc(-c5ccccc5)c4)cnc3c2)c1` [Example 1, N-Methyl-3-[3-(2-phenyl-pyridin-4-yl)-imidazo[1,2-b]pyridazin-7-yl]-benzamide] to `CCCCNC(=O)c1cccc(-c2cnn3c(-c4ccnc(-c5ccccc5)c4)cnc3c2)c1` [Example 59, N-Butyl-3-[3-(2-Phenyl-pyridin-4-yl)-imidazo[1,2-b]pyridazin-7-yl]-benzamide], the pIC50 falls from 7.08 to 6.63 (0.45 log units).

First: CNC(=O)c1cccc(-c2cnn3c(-c4ccnc(-c5ccc(F)cc5)c4)cnc3c2)c1 [Example 6, 3-{3-[2-(4-Fluoro-phenyl)-pyridin-4-yl]-imidazo[1,2-b]pyridazin-7-yl}-N-methyl-benzamide]
Second: CS(=O)(=O)Nc1cccc(-c2cnn3c(-c4ccnc(-c5ccoc5)c4)cnc3c2)c1 [Example 14, N-{3-[3-(2-Furan-3-yl-pyridin-4-yl)-imidazo[1,2-b]pyridazin-7-yl]-phenyl}-methanesulfonamide]
The pIC50 of the first is 0.52 log units lower: 6.86 for the first, 7.38 for the second. The second is the more potent here.

First: Oc1cccc(-c2cnn3c(-c4cccc(-n5cccn5)c4)cnc3c2)c1 [Example 8, 3-[3-(3-Pyrazol-1-yl-phenyl)-imidazo[1,2-b]pyridazin-7-yl]-phenol]
Second: c1cncc(-c2cnn3c(-c4cccc(-n5cccn5)c4)cnc3c2)c1 [Example 18, 3-(3-Pyrazol-1-yl-phenyl)-7-pyridin-3-yl-imidazo[1,2-b]pyridazine]
The pIC50 of the first is 0.29 log units higher: 7.62 for the first, 7.33 for the second. The first is the more potent here.

First: c1ccc(-c2cc(-c3cnc4cc(-c5ccncc5)cnn34)ccn2)cc1 [Example 10, 3-(2-Phenyl-pyridin-4-yl)-7-pyridin-4-yl-imidazo[1,2-b]pyridazine]
Second: NC(=O)c1cccc(-c2cnc3cc(-c4cccc(F)c4)cnn23)c1 [Example 24, 3-[7-(3-Fluoro-phenyl)-imidazo[1,2-b]pyridazin-3-yl]-benzamide]
The pIC50 of the first is 0.47 log units higher: 7.55 for the first, 7.08 for the second. The first is the more potent here.

`COc1cc(-c2cnc3cc(-c4cccnc4)cnn23)ccc1O` [Example 20, 2-Methoxy-4-(7-pyridin-3-yl-imidazo[1,2-b]pyridazin-3-yl)-phenol] and `CCOC(=O)c1ccc(-c2cnn3c(-c4cccc(-n5cccn5)c4)cnc3c2)cc1` [Example 34, 4-[3-(3-Pyrazol-1-yl-phenyl)-imidazo[1,2-b]pyridazin-7-yl]-benzoic acid ethyl ester] are within 0.2 log units of each other in pIC50: 6.69 for the first, 6.85 for the second.
